Results from patent US20200085050A1, “Acyclic Picolinamides as a Seed Treatment” (priority 2017, published 2020).
Like-named read-outs stand apart in the source and are kept apart here.

Assays:
Parastagonospora nodorum = test: Seed treatment, wheat glume blotch (LEPTNO) foliar disease control; format: in vivo
[1] = system: Blumeria graminis f. sp. tritici; test: Seed treatment, wheat powdery mildew (ERYSGT) foliar disease control; format: in vivo
[2] = system: Blumeria graminis f. sp. hordei; test: Seed treatment, barley powdery mildew (ERYSGH) foliar disease control; format: in vivo
Rhizoctonia solani = test: Seed treatment, rice sheath blight (RHIZSO) foliar disease control; format: in vivo
Zymoseptoria tritici = test: Seed treatment, wheat leaf blotch (SEPTTR) foliar disease control; format: in vivo
Puccinia triticina = test: Seed treatment, wheat brown rust (PUCCRT) foliar disease control; format: in vivo
Phakopsora pachyrhizi = test: Seed treatment, soybean rust (PHAKPA) foliar disease control; format: in vivo; details: at any rate, data not shown
[3] = system: Pseudoperonospora cubensis; test: Seed treatment, cucumber downy mildew (PSEUCU) foliar disease control; format: in vivo
[4] = in vivo
Description: The treated seeds were planted in pots containing soil-less Metro mix within 2 weeks after treatment, and resultant seedling plants were inoculated with respective pathogens as described below. Four pots of the seedlings were inoculated for each treatment rate.

[5] = system: Colletotrichum lagenarium; test: Seed treatment, cucumber anthracnose (COLLLA) foliar disease control; format: in vivo
Pyricularia oryzae = format: in vivo; details: for PYRIOR rating of foliar disease control: rice
Erysiphe cichoracearum = test: Seed treatment, cucumber powdery mildew (ERYSCI) foliar disease control; format: in vivo
Rhynchosporium secalis = test: Seed treatment, barley scald (RHYNSE) foliar disease control; format: in vivo
Cochliobolus sativus = test: Seed treatment, spot blotch of barley (COCHSA) foliar disease control; format: in vivo
[6] = seed treatment 3.7 g ai/100 kg seeds
[7] = seed treatment 11 g ai/100 kg seeds
[8] = seed treatment 33.3 g ai/100 kg seeds
[9] = seed treatment 100 g ai/100 kg seeds
[10] = seed treatment 300 g ai/100 kg seeds
[11] = seed treatment, summary of Table 2
[12] = seed treatment, summary of Table 3
[13] = seed treatment, summary of Table 5
[14] = seed treatment, summary of Table 4

COc1ccnc(C(=O)N[C@@H](C)C(=O)O[C@@H](C)C(c2ccc(F)cc2)c2ccc(F)cc2)c1OC(C)=O [I, (S)-1,1-bis(4-fluorophenyl)propan-2-yl (3-acetoxy-4-methoxypicolinoyl)-L-alaninate]
LEPTNO rating of foliar disease control (Parastagonospora nodorum; [6]): A (76-100)
LEPTNO rating of foliar disease control (Parastagonospora nodorum; [7]): A (76-100)
LEPTNO rating of foliar disease control (Parastagonospora nodorum; [8]): A (76-100)
LEPTNO rating of foliar disease control (Parastagonospora nodorum; [9]): A (76-100)
LEPTNO rating of foliar disease control (Parastagonospora nodorum; [10]): A (76-100)
protection against glume blotch (LEPTNO), in words (Parastagonospora nodorum; [11]): excellent protection
ERYSGT rating of foliar disease control [1, 6]: D (0-25)
ERYSGT rating of foliar disease control [1, 7]: D (0-25)
ERYSGT rating of foliar disease control [1, 8]: B (51-75)
ERYSGT rating of foliar disease control [1, 9]: A (76-100)
ERYSGT rating of foliar disease control [1, 10]: A (76-100)
activity against powdery mildew (ERYSGT), in words [1, 11]: moderate activity
ERYSGH rating of foliar disease control [2, 6]: D (0-25)
ERYSGH rating of foliar disease control [2, 7]: A (76-100)
ERYSGH rating of foliar disease control [2, 8]: A (76-100)
ERYSGH rating of foliar disease control [2, 9]: A (76-100)
ERYSGH rating of foliar disease control [2, 10]: A (76-100)
activity on powdery mildew (ERYSGH), in words [2, 12]: excellent activity
RHIZSO rating of foliar disease control (Rhizoctonia solani; [6]): D (0-25)
RHIZSO rating of foliar disease control (Rhizoctonia solani; [7]): D (0-25)
RHIZSO rating of foliar disease control (Rhizoctonia solani; [8]): D (0-25)
RHIZSO rating of foliar disease control (Rhizoctonia solani; [9]): D (0-25)
RHIZSO rating of foliar disease control (Rhizoctonia solani; [10]): D (0-25)
activity on rice sheath blight (RHIZSO), in words (Rhizoctonia solani; [13]): little activity
SEPTTR rating of foliar disease control (Zymoseptoria tritici; [6]): A (76-100)
SEPTTR rating of foliar disease control (Zymoseptoria tritici; [7]): A (76-100)
SEPTTR rating of foliar disease control (Zymoseptoria tritici; [8]): A (76-100)
SEPTTR rating of foliar disease control (Zymoseptoria tritici; [9]): A (76-100)
SEPTTR rating of foliar disease control (Zymoseptoria tritici; [10]): A (76-100)
protection against leaf blotch (SEPTTR), in words (Zymoseptoria tritici; [11]): excellent protection
PUCCRT rating of foliar disease control (Puccinia triticina; [6]): D (0-25)
PUCCRT rating of foliar disease control (Puccinia triticina; [7]): D (0-25)
PUCCRT rating of foliar disease control (Puccinia triticina; [8]): D (0-25)
PUCCRT rating of foliar disease control (Puccinia triticina; [9]): C (26-50)
PUCCRT rating of foliar disease control (Puccinia triticina; [10]): A (76-100)
activity against brown rust (PUCCRT), in words (Puccinia triticina; [11]): moderate activity
activity on Asian soybean rust (PHAKPA), in words (Phakopsora pachyrhizi): no activity
PSEUCU rating of foliar disease control [3, 6]: D (0-25)
PSEUCU rating of foliar disease control [3, 7]: D (0-25)
PSEUCU rating of foliar disease control [3, 8]: D (0-25)
PSEUCU rating of foliar disease control [3, 9]: D (0-25)
PSEUCU rating of foliar disease control [3, 10]: D (0-25)
activity on downy mildew (PSEUCU), in words [3, 14]: little activity
stunting or phytotoxicity [4]: no evidence of stunting or phytotoxicity
COLLLA rating of foliar disease control [5, 6]: D (0-25)
COLLLA rating of foliar disease control [5, 7]: B (51-75)
COLLLA rating of foliar disease control [5, 8]: B (51-75)
COLLLA rating of foliar disease control [5, 9]: A (76-100)
COLLLA rating of foliar disease control [5, 10]: A (76-100)
activity on anthracnose (COLLLA), in words [5, 14]: strong activity
PYRIOR rating of foliar disease control (Pyricularia oryzae; [6]): B (51-75)
PYRIOR rating of foliar disease control (Pyricularia oryzae; [7]): B (51-75)
PYRIOR rating of foliar disease control (Pyricularia oryzae; [8]): A (76-100)
PYRIOR rating of foliar disease control (Pyricularia oryzae; [9]): A (76-100)
PYRIOR rating of foliar disease control (Pyricularia oryzae; [10]): A (76-100)
activity on rice blast (PYRIOR), in words (Pyricularia oryzae; [13]): strong activity
ERYSCI rating of foliar disease control (Erysiphe cichoracearum; [6]): D (0-25)
ERYSCI rating of foliar disease control (Erysiphe cichoracearum; [7]): D (0-25)
ERYSCI rating of foliar disease control (Erysiphe cichoracearum; [8]): D (0-25)
ERYSCI rating of foliar disease control (Erysiphe cichoracearum; [9]): B (51-75)
ERYSCI rating of foliar disease control (Erysiphe cichoracearum; [10]): A (76-100)
activity on powdery mildew (ERYSCI), in words (Erysiphe cichoracearum; [14]): moderate activity
RHYNSE rating of foliar disease control (Rhynchosporium secalis; [6]): D (0-25)
RHYNSE rating of foliar disease control (Rhynchosporium secalis; [7]): D (0-25)
RHYNSE rating of foliar disease control (Rhynchosporium secalis; [8]): C (26-50)
RHYNSE rating of foliar disease control (Rhynchosporium secalis; [9]): B (51-75)
RHYNSE rating of foliar disease control (Rhynchosporium secalis; [10]): A (76-100)
activity on barley scald (RHYNSE), in words (Rhynchosporium secalis; [12]): moderate activity
COCHSA rating of foliar disease control (Cochliobolus sativus; [6]): D (0-25)
COCHSA rating of foliar disease control (Cochliobolus sativus; [7]): D (0-25)
COCHSA rating of foliar disease control (Cochliobolus sativus; [8]): D (0-25)
COCHSA rating of foliar disease control (Cochliobolus sativus; [9]): D (0-25)
COCHSA rating of foliar disease control (Cochliobolus sativus; [10]): D (0-25)
activity on spot blotch (COCHSA), in words (Cochliobolus sativus; [12]): little activity
